According to patent US20190248779A1, “COMPOUNDS, COMPOSITIONS, AND METHODS FOR INCREASING CFTR ACTIVITY” (Proteostasis Therapeutics, Inc., priority 2016, published 2019):

Biological target: T1, ΔF508-CFTR (Homo sapiens, UniProt P13569, DEL508-508)
T1 construct: Primary lung epithelial cells homozygous for the Cystic Fibrosis-causing ΔF508 mutation were differentiated for a minimum of 4 weeks; endogenous in cells; host or cells: primary lung (bronchial) epithelial cells (hBE) homozygous for ΔF508, differentiated at an air-liquid interface
T1 sequence (P13569 with tags, fused parts or gaps DEL508-508): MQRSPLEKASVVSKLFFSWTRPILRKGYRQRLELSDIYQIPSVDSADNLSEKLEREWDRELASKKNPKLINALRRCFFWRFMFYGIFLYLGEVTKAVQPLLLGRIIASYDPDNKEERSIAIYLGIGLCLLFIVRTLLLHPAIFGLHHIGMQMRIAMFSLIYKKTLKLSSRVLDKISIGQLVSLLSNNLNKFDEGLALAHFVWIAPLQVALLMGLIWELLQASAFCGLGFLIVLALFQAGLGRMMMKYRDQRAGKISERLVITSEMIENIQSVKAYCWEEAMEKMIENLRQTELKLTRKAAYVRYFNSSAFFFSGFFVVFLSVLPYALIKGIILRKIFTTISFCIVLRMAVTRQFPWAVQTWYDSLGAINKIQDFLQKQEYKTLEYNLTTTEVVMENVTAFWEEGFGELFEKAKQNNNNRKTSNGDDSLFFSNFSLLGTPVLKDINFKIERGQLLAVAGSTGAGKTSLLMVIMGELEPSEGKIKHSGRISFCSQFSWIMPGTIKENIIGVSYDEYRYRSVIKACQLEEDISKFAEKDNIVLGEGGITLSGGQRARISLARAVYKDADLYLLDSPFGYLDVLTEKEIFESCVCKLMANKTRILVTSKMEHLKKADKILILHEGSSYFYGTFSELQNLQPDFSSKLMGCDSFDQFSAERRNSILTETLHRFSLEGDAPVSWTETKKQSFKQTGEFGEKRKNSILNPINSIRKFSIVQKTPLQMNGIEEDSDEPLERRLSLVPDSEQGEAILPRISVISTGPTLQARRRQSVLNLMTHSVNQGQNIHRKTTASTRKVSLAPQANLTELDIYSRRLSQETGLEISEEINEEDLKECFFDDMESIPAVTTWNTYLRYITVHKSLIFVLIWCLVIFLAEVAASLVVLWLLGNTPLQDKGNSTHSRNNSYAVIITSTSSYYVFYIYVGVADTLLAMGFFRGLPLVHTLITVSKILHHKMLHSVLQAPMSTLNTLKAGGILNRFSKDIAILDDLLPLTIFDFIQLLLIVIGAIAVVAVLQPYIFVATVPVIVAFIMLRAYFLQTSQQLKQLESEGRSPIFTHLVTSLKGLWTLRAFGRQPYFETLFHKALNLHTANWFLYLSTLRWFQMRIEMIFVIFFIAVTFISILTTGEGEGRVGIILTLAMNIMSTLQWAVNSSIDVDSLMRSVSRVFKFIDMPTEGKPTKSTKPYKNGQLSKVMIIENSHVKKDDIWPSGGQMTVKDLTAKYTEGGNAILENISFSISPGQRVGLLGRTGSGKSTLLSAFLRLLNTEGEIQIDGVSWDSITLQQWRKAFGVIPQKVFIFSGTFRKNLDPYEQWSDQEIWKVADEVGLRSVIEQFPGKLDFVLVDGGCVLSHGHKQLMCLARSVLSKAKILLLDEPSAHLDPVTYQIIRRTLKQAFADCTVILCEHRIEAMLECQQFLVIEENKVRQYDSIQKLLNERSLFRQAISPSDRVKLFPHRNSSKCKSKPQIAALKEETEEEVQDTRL
Experiment: hBE equivalent current (Ieq) assay
Format: cell-based
Details: 24 h, relative to a CFTR amplifier at 3 uM, AUC of equivalent chloride current, primary lung epithelial cells homozygous for ΔF508; for Activity 10 μM: compound at 10 μM; for Activity 3 μM: compound at 3 μM
Description: ii. hBE Equivalent Current (Ieq) Assay
Primary lung epithelial cells homozygous for the Cystic Fibrosis-causing ΔF508 mutation were differentiated for a minimum of 4 weeks in an air-liquid interface on Costar 24 well HTS filter plates prior to the equivalent current (Ieq) measurements. Cells were apically mucus-washed for 30 minutes 24 h prior to treatment with compounds. The basolateral media was removed and replaced with media containing the compound of interest diluted to its final concentration from DMSO stocks. Treated cells were incubated at 37° C. and 5% CO2 for 24 hours. At the end of the treatment period, the media was changed to the Ieq experimental solution for 2 hours before the experiment and plates are maintained in a CO2-free incubator during this period. The plates containing the cells were then placed in pre-warmed heating blocks at 36° C.±0.5 for 15 minutes before measurements are taken. The transepithelial voltage (VT) and conductance (GT) were measured using a custom 24 channel current clamp (TECC-24) with 24 well electrode manifold. The Ieq assay measurements were made following additions with standardized time periods:
1. The baseline VT and GT values were measured for approximately 20 minutes.
2. Benzamil was added to block ENaC for 15 minutes.
3. Forskolin plus VX-770 were added to maximally activate ΔF508-CFTR for 27 minutes.
4. Bumetanide was added to inhibit the NaK2Cl cotransporter and shut-off secretion of chloride.
The activity data captured was the area under the curve (AUC) for the traces of the equivalent chloride current. The AUC was collected from the time of the forskolin/VX-770 addition until the inhibition by bumetanide addition. Correction in response to compound treatment was scored as the increase in the AUC for compound-treated samples over that of vehicle-treated samples.
The results are shown below in Table 1. + indicates activity <150% of a CFTR amplifier with compound at concentration shown and amplifier at 3 uM; ++ indicates activity >150% of a CFTR amplifier with compound at concentration shown and amplifier at 3 uM.

COc1csc(-c2ccc(=O)n(C(C)C(=O)Nc3ccc(C(F)(F)F)cc3)n2)c1 (stereo not shown) [Compound 18, 2-(3-(4-Methoxythiophen-2-yl)-6-oxopyridazin-1(6H)-yl)-N-(4-(trifluoromethyl)phenyl)propanamide]
Activity 10 μM: + (activity <150% of a CFTR amplifier with compound at concentration shown and amplifier at 3 uM)

COc1cc(-c2ccc(=O)n(C(C)C(=O)Nc3ccc(C(F)(F)F)cc3)n2)ccn1 (stereo not shown) [Compound 19, 2-(3-(2-Methoxypyridin-4-yl)-6-oxopyridazin-1(6H)-yl)-N-(4-(trifluoromethyl)phenyl)propanamide]
Activity 3 μM: + (activity <150% of a CFTR amplifier with compound at concentration shown and amplifier at 3 uM)
Activity 10 μM: + (activity <150% of a CFTR amplifier with compound at concentration shown and amplifier at 3 uM)

COc1cncc(-c2ccc(=O)n(C(C)C(=O)Nc3ccc(C(F)(F)F)cc3)n2)c1 (stereo not shown) [Compound 20, 2-(3-(5-Methoxypyridin-3-yl)-6-oxopyridazin-1(6H)-yl)-N-(4-(trifluoromethyl)phenyl)propanamide]
Activity 3 μM: ++ (activity >150% of a CFTR amplifier with compound at concentration shown and amplifier at 3 uM)
Activity 10 μM: ++ (activity >150% of a CFTR amplifier with compound at concentration shown and amplifier at 3 uM)

COc1ccnc(-c2ccc(=O)n(C(C)C(=O)Nc3ccc(C(F)(F)F)cc3)n2)c1 (stereo not shown) [Compound 21, 2-(3-(4-Methoxypyridin-2-yl)-6-oxopyridazin-1(6H)-yl)-N-(4-(trifluoromethyl)phenyl)propanamide]
Activity 10 μM: + (activity <150% of a CFTR amplifier with compound at concentration shown and amplifier at 3 uM)

COc1cccc(-c2ccc(=O)n(C(C)C(=O)Nc3ccc(C(F)(F)F)cc3)n2)n1 (stereo not shown) [Compound 22, 2-(3-(6-Methoxypyridin-2-yl)-6-oxopyridazin-1(6H)-yl)-N-(4-(trifluoromethyl)phenyl)propanamide]
Activity 3 μM: ++ (activity >150% of a CFTR amplifier with compound at concentration shown and amplifier at 3 uM)
Activity 10 μM: + (activity <150% of a CFTR amplifier with compound at concentration shown and amplifier at 3 uM)

CC(C(=O)Nc1ccc(C(F)(F)F)cc1)n1nc(-c2cc(Cl)cs2)ccc1=O (stereo not shown) [Compound 23, 2-(3-(4-Chlorothiophen-2-yl)-6-oxopyridazin-1(6H)-yl)-N-(4-(trifluoromethyl)phenyl)propanamide]
Activity 10 μM: ++ (activity >150% of a CFTR amplifier with compound at concentration shown and amplifier at 3 uM)

CC(C(=O)Nc1ccc(C(F)(F)F)cc1)n1nc(-c2ccsc2Cl)ccc1=O (stereo not shown) [Compound 24, 2-(3-(2-Chlorothiophen-3-yl)-6-oxopyridazin-1(6H)-yl)-N-(4-(trifluoromethyl)phenyl)propanamide]
Activity 10 μM: ++ (activity >150% of a CFTR amplifier with compound at concentration shown and amplifier at 3 uM)

CC(C(=O)Nc1ccc(C(F)(F)F)cc1)n1nc(-c2cc(Cl)sc2Cl)ccc1=O (stereo not shown) [Compound 25, 2-(3-(2,5-Dichlorothiophen-3-yl)-6-oxopyridazin-1(6H)-yl)-N-(4-(trifluoromethyl)phenyl)propanamide]
Activity 10 μM: + (activity <150% of a CFTR amplifier with compound at concentration shown and amplifier at 3 uM)

CC(C(=O)Nc1ccc(C(F)(F)F)cc1)n1nc(-c2csc(Cl)n2)ccc1=O (stereo not shown) [Compound 26, 2-[3-(2-Chloro-1,3-thiazol-4-yl)-6-oxo-1,6-dihydropyridazin-1-yl]-N-[4-(trifluoromethyl)phenyl]propanamide]
Activity 10 μM: + (activity <150% of a CFTR amplifier with compound at concentration shown and amplifier at 3 uM)

CC(C(=O)Nc1ccc(C(F)(F)F)cc1)n1nc(-c2cnc(Cl)s2)ccc1=O (stereo not shown) [Compound 27, 2-[3-(2-Chloro-1,3-thiazol-5-yl)-6-oxo-1,6-dihydropyridazin-1-yl]-N-[4-(trifluoromethyl)phenyl]propanamide]
Activity 10 μM: + (activity <150% of a CFTR amplifier with compound at concentration shown and amplifier at 3 uM)
